In ChEMBL document CHEMBL1201862, “PubChem BioAssay data set” (2004):
Active and inactive are the calls of the source.

What was measured:
[1] = target: Tumor necrosis factor (Homo sapiens, UniProt P01375); experiment: TNFa-triggered NF-kB activation inhibitors, SAR follow-up, cell-based, revised (AID 2337); format: functional
[2] = target: Nucleotide-binding oligomerization domain-containing protein 1 (Homo sapiens, UniProt Q9Y239); experiment: NOD1 signaling inhibitors, SAR follow-up, revised (AID 2333); format: functional
[3] = target: Nucleotide-binding oligomerization domain-containing protein 2 (Homo sapiens, UniProt Q9HC29); experiment: PubChem AID 2334; format: functional
[4] = system: HEK293; experiment: cells; details: Homo sapiens;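 note: cells exposed to compound for 14 hours overnight before viability readout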
[5] = target: Sphingosine 1-phosphate receptor 1 (Homo sapiens, UniProt P21453); experiment: Fluorescence-based counterscreen assay for S1P4 agonists: Cell-based dose response high throughput screening assay to identify agonists of the Sphingosine 1-Phosphate Receptor 1 (S1P1). [Related pubchem assays (depositor defined):AID1509, AID1523, AID1801, AID463107, AID463118, AID463119, AID463122, AID463123, AID463129, AID463225, AID504400, AID504460]; format: functional
[6] = target: Sphingosine 1-phosphate receptor 4 (Homo sapiens, UniProt O95977); experiment: Fluorescence dose response cell-based high throughput screening assay for agonists of the Sphingosine 1-Phosphate Receptor 4 (S1P4). [Related pubchem assays: 1509 (Primary screen.), 1523 (Confirmation screen in triplicates.)]; format: functional
[7] = target: Lysine-specific demethylase 4A (Homo sapiens, UniProt O75164); experiment: JMJD2A histone demethylase inhibitors, dose response, selectivity assay for GASC-1 inhibitor project, biochemical, DELFIA europium, cherry-picked samples (AID 488840)
[8] = target: T1, Lysine-specific demethylase 4C (Homo sapiens, UniProt Q9H3R0); experiment: GASC-1 (JMJD2C) histone demethylase inhibitors, dose response, biochemical, DELFIA europium, cherry-picked samples (AID 488835); format: functional
T1 sequence (Q9H3R0 whole entry): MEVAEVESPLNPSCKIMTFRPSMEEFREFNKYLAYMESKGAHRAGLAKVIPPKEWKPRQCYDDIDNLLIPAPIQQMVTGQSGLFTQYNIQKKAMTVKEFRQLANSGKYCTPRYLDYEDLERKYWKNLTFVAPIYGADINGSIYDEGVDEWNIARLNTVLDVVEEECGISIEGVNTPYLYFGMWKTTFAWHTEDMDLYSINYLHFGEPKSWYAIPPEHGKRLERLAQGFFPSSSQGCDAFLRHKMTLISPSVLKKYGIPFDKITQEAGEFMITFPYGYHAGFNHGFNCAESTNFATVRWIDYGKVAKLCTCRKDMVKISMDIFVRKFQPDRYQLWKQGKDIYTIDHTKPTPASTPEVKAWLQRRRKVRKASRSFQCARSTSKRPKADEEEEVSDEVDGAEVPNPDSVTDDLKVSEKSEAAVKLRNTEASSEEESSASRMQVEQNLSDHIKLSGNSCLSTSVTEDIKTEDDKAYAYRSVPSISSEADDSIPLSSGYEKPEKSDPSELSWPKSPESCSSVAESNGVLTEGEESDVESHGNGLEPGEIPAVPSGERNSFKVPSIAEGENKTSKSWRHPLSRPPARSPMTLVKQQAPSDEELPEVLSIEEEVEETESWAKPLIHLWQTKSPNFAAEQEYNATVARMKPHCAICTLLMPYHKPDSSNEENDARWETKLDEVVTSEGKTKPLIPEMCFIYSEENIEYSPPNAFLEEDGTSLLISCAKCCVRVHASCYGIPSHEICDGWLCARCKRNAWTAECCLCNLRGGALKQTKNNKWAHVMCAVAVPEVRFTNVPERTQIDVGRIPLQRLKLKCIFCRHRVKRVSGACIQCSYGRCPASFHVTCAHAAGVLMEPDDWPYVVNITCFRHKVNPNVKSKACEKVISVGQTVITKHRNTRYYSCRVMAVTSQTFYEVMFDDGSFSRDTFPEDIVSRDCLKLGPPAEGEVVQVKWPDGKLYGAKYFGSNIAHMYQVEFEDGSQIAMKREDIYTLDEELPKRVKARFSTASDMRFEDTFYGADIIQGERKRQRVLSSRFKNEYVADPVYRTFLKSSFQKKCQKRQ

[9] = target: CAAX prenyl protease 2 (Saccharomyces cerevisiae S288c, UniProt Q03530); format: biochemical
[10] = target: CAAX prenyl protease 1 (Saccharomyces cerevisiae S288c, UniProt P47154); experiment: Ste24 protease inhibitors, dose response, biochemical, S. cerevisiae, plate reader, cherry-pick (AID 488815)
Chain of CAAX prenyl protease 1 (P47154 whole entry): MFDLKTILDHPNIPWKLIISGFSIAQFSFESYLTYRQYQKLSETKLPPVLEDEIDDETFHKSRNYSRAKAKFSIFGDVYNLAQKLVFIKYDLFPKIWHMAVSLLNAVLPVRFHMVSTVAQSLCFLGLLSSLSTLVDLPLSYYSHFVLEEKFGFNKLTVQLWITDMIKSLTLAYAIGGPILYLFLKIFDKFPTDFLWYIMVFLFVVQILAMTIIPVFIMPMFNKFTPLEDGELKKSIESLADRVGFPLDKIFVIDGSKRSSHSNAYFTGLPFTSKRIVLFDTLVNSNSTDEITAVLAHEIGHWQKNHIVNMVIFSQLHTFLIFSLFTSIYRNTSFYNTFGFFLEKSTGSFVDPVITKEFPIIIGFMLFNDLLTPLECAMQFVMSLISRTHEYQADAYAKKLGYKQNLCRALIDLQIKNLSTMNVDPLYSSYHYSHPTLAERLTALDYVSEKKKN

Chain of Lysine-specific demethylase 4A (O75164 whole entry): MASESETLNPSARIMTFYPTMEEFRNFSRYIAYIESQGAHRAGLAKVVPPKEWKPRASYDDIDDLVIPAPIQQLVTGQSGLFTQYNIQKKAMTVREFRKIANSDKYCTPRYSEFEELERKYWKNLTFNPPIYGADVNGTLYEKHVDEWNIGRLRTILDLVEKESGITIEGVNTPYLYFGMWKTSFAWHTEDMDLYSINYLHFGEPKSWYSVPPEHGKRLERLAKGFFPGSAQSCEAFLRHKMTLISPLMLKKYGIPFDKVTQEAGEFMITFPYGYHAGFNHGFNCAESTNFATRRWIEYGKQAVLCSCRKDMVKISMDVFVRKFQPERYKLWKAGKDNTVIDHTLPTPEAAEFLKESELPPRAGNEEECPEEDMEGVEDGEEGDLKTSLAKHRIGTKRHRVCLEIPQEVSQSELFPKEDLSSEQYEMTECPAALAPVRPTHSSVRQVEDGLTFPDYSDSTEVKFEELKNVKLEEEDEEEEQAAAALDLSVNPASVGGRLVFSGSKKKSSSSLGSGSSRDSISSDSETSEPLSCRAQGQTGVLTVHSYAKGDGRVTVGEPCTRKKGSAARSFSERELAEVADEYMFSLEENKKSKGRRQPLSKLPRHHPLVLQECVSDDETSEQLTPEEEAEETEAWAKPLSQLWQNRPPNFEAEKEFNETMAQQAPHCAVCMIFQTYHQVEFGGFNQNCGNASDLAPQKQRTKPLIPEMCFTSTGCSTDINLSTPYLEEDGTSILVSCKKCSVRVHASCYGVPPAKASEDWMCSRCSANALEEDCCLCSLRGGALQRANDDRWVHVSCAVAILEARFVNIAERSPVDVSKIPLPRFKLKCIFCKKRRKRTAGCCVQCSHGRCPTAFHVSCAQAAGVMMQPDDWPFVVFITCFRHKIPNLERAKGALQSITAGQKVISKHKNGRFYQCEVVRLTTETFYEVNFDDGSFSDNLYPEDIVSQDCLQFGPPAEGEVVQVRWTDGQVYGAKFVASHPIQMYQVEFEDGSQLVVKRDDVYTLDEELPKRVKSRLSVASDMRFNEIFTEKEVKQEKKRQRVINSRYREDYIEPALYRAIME
Chain of Sphingosine 1-phosphate receptor 4 (O95977 whole entry): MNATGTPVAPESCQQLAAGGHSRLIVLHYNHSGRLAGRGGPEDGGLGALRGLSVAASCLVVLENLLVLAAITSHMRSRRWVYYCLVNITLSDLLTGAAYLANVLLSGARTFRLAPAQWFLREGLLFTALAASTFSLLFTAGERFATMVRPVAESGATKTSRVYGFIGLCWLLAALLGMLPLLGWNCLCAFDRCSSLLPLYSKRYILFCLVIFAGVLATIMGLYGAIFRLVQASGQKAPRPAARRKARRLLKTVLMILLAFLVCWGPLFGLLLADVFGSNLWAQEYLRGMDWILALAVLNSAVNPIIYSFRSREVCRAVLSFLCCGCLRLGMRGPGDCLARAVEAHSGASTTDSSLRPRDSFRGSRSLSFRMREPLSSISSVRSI
Chain of Tumor necrosis factor (P01375 whole entry, the tested form may be a part): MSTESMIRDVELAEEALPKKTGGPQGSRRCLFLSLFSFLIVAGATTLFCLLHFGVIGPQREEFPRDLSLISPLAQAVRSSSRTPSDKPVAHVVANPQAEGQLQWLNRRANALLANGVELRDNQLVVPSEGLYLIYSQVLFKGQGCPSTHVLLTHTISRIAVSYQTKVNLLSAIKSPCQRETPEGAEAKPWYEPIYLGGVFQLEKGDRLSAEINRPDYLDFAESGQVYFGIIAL
Chain of CAAX prenyl protease 2 (Q03530 whole entry): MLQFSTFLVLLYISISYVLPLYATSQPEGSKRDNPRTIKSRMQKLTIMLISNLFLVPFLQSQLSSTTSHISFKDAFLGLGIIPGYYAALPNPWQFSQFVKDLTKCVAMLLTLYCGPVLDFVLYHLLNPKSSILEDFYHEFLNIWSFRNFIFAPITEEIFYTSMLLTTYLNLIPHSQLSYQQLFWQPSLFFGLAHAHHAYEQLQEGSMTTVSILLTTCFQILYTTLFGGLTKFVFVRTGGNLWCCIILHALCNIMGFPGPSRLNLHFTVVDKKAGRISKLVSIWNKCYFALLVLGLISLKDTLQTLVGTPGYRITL
Chain of Sphingosine 1-phosphate receptor 1 (P21453 whole entry): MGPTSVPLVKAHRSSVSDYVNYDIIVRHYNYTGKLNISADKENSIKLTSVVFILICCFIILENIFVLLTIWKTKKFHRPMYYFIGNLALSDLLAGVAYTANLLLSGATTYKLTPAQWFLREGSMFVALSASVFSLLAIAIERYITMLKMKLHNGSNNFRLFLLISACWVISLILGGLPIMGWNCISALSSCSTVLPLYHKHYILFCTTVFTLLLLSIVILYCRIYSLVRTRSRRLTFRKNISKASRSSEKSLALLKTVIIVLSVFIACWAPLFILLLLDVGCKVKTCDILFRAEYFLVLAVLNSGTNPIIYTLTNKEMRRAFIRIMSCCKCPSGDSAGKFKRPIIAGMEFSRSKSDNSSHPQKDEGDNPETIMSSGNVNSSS
Chain of Nucleotide-binding oligomerization domain-containing protein 1 (Q9Y239 whole entry, the tested form may be a part): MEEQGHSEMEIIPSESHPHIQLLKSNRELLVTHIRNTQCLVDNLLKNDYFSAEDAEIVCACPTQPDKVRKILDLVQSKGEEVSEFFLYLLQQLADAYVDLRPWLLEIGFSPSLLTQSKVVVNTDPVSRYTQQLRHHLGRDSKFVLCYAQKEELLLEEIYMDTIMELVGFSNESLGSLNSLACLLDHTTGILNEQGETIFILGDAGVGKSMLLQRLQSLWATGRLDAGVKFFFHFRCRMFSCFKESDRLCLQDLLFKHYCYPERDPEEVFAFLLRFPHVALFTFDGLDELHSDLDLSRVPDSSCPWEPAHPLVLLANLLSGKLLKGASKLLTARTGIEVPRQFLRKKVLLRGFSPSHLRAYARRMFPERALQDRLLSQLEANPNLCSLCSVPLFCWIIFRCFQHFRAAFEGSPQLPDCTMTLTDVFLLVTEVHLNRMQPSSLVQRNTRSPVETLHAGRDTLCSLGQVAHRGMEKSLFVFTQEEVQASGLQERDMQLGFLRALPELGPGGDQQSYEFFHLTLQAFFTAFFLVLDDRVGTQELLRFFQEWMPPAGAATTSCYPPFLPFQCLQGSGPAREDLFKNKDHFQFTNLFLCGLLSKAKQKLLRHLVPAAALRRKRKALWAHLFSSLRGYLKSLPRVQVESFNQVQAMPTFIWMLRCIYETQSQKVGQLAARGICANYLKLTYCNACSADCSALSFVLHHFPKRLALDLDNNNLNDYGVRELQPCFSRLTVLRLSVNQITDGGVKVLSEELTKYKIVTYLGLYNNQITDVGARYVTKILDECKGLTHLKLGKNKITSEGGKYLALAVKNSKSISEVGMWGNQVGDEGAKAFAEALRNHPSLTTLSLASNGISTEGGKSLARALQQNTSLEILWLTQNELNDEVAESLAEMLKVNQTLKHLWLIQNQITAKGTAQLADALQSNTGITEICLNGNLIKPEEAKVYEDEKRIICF
Chain of Nucleotide-binding oligomerization domain-containing protein 2 (Q9HC29 whole entry, the tested form may be a part): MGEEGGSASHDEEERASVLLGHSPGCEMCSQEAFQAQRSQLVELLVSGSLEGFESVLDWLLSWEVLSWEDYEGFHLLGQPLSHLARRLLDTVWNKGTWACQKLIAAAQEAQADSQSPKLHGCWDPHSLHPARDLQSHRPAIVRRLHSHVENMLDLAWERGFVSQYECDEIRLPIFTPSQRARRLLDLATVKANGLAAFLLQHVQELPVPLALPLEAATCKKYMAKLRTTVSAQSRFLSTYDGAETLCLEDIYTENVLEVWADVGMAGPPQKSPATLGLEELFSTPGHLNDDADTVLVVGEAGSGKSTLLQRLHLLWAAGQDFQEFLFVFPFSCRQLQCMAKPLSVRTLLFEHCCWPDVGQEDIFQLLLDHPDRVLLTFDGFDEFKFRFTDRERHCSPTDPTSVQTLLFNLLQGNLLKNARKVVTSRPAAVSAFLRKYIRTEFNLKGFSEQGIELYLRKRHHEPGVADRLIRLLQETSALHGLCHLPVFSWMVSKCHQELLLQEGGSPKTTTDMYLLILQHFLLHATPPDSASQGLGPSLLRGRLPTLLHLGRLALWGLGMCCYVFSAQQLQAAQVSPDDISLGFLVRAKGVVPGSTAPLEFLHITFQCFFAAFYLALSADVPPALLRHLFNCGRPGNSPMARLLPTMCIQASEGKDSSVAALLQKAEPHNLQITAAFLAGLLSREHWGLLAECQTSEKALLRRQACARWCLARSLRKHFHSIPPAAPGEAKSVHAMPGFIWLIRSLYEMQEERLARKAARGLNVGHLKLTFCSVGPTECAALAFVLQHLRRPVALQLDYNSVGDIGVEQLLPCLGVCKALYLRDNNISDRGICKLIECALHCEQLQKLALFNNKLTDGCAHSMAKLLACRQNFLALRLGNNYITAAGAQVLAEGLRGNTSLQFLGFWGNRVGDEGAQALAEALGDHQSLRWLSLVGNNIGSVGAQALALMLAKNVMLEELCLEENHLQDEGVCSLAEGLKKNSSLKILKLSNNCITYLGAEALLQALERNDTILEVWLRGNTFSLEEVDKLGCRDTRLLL

Q: For `Cc1cc(C(=O)NC2CCCc3c2cnn3-c2ccccc2F)[nH]n1` (stereo not given), which IC50 [1] is on record?
A: Its IC50 is > 20 µM (inactive).

Q: What about the IC50 [2] of the same compound?
A: Its IC50 is > 20 µM (inactive).

Q: And the IC50 [3]?
A: The IC50 was > 20 µM (inactive).

Q: And the IC50 [4]?
A: The IC50 was > 20 µM (inactive).

Q: What does the source list for `NC(=S)c1cc2ccc(O)cc2oc1=O`?
A: EC50 [5]: 52.9 µM (inactive); EC50 [6]: 7.68 µM (active)

Q: How did the AC50 [7] turn out when `CCCCOc1ccc(CC2C(=O)N(C)C(=O)N(C)C2=O)cc1` was run?
A: The AC50 was 12.5 µM (active).

Q: And the AC50 [8]?
A: Its AC50 is 1.76 µM (active).

Q: Which AC50 [9] does the source give for `COc1ccc(N2CCN(C(=O)c3cc(-c4cccs4)nc4ccccc34)CC2)cc1` here?
A: The AC50 was 4.06 µM (active).

Q: What about the AC50 [10] of the same compound?
A: The AC50 was 47.6 µM (active).
